The results in this text go back to US10219516B2, “Molecules having pesticidal utility, and intermediates, compositions, and processes, related thereto” (priority 2015, dated 2019).

The structures appear in SMILES notation.

One assay relates to Beet Armyworm (Spodoptera exigua, LAPHEG). Nature of the assay: Bioassay on Beet Armyworm (BAW), 128-well diet tray assay. The format is in vivo. As to conditions: Beet Armyworm, 128-well diet tray assay, read-out: BAW rating. The procedure:
(§1) Certain molecules disclosed in this document were tested against BAW and CL using procedures described in the following examples. In the reporting of the results, the “BAW & CL Rating Table” was used (See Table Section).
Bioassays on BAW were conducted using a 128-well diet tray assay. One to five second instar BAW larvae were placed in each well (3 mL) of the diet tray that had been previously filled with approximately 1.5 mL of artificial diet to which 50 μg/cm^2 of the test molecule (dissolved in 50 μL of 90:10 acetone-water mixture) had been applied (to each of eight wells) and then allowed to dry. Trays were covered with a clear self-adhesive cover, vented to allow gas exchange, and held at 25° C., 14:10 light-dark for five to seven days. Percent mortality was recorded for the larvae in each well; activity in the eight wells was then averaged. The results are indicated in the table entitled “Table ABC: Biological Results” (See Table Section).
With `CC(C)(C)OC(=O)N(C(=O)OC(C)(C)C)c1c(F)ccc(NC(=O)c2cc(NC(=O)[C@H]3[C@H](c4cc(Cl)c(Cl)c(Cl)c4)C3(Cl)Cl)ccc2Cl)c1F` [F501, tert-Butyl-N-((tert-butoxy)carbonyl)-N-(3-(2-chloro-5-((1R,3R)-2,2-dichloro-3-(3,4,5-trichlorophenyl)cyclopropane-1-carboxamido)benzamido)-2,6-difluorophenyl)carbamate], the pest or weed control at 50 µg/cm2 fell in the range of 0 to 50%.
Still for that read-out and setting: as for `CCc1cc(C(F)(C(F)(F)F)C(F)(F)F)cc(CC)c1NC(=O)c1cc(NC(=O)[C@H]2[C@H](c3cc(Cl)cc(Cl)c3)C2(Cl)Cl)ccc1Cl` (relative stereo) [PF61, trans-2-Chloro-5-(2,2-dichloro-3-(3,5-dichlorophenyl)cyclopropane-1-carboxamido)-N-(2,6-diethyl-4-(perfluoropropan-2-yl)phenyl)benzamide], the figure is 0 to 50%.
The same measure, in the same setting: for `CC(C)(C)OC(=O)N(C(=O)OC(C)(C)C)c1c(F)ccc(NC(=O)c2cc(NC(=O)C3C(c4cc(Cl)cc(Br)c4)C3(Cl)Cl)ccc2Cl)c1F` (stereo not drawn) [F514, tert-Butyl-N-((tert-butoxy)carbonyl)-N-(3-(5-(3-(3-bromo-5-chlorophenyl)-2,2-dichlorocyclopropane-1-carboxamido)-2-chlorobenzamido)-2,6-difluorophenyl)carbamate] the value was 50 to 100%; for `CC(C)(C)OC(=O)N(C(=O)OC(C)(C)C)c1c(F)ccc(NC(=O)c2cc(NC(=O)[C@H]3[C@H](c4cc(Cl)cc(Cl)c4)C3(Cl)Cl)ccc2Cl)c1F` (relative stereo) [F468, trans-tert-Butyl-N-((tert-butoxy)carbonyl)-N-(3-(2-chloro-5-(2,2-dichloro-3-(3,5-dichlorophenyl)cyclopropane-1-carboxamido)benzamido)-2,6-difluorophenyl)carbamate], 0 to 50%; for `CC(C)(C)OC(=O)N(C(=O)OC(C)(C)C)c1c(F)ccc(NC(=O)c2cc(NC(=O)[C@H]3[C@H](c4cc(Cl)cc(Cl)c4)C3(Cl)Cl)ccc2Cl)c1F` [F499, tert-Butyl-N-((tert-butoxy)carbonyl)-N-(3-(2-chloro-5-((1R,3R)-2,2-dichloro-3-(3,5-dichlorophenyl)cyclopropane-1-carboxamido)benzamido)-2,6-difluorophenyl)carbamate], 50 to 100%.
The same measure, in the same setting: for `CCc1cc(C(F)(C(F)(F)F)C(F)(F)C(F)(F)F)cc(CC)c1NC(=O)c1cc(NC(=O)[C@H]2[C@H](c3cc(Cl)cc(Cl)c3)C2(Cl)Cl)ccc1Cl` (relative stereo) [PF59, trans-2-Chloro-5-(2,2-dichloro-3-(3,5-dichlorophenyl)cyclopropane-1-carboxamido)-N-(2,6-diethyl-4-(perfluorobutan-2-yl)phenyl)benzamide] the value was 0 to 50%; for `C=Cc1cc(Cl)cc(C2C(C(=O)Nc3ccc(Cl)c(C(=O)Nc4ccc(F)c(N(C(=O)OC(C)(C)C)C(=O)OC(C)(C)C)c4F)c3)C2(Cl)Cl)c1` (stereo not drawn) [F523, tert-Butyl-N-((tert-butoxyl)carbonyl)-N-(3-(2-chloro-5-(2,2-dichloro-3-(3-chloro-5-vinylphenyl)cyclopropane-1-carboxamido)benzamido)-2,6-difluorophenyl)carbamate], 0 to 50%; for `CC(C)(C)OC(=O)N1CCc2cc(NC(=O)c3cc(NC(=O)[C@H]4[C@H](c5cc(Cl)cc(Cl)c5)C4(Cl)Cl)ccc3Cl)ccc21` (relative stereo) [F509, tert-Butyl 5-(2-chloro-5-(trans)-(2,2-dichloro-3-(3,5-dichlorophenyl)cyclopropane-1-carboxamido)benzamido)indoline-1-carboxylate], 0 to 50%.
Turning to `O=C(Nc1cc(Cl)c(Cl)c(Cl)c1)c1cc(NC(=O)C2C(c3cc(Cl)cc(Cl)c3)C2(Cl)Cl)ccc1Cl` (stereo not drawn) [PF119, 2-Chloro-5-(trans)-2,2-dichloro-3-(3,5-dichlorophenyl)cyclopropane-1-carboxamido)-N-(3,4,5-trichlorophenyl)benzamide], the pest or weed control at 50 µg/cm2 fell in the range of 50 to 100%.

Still in this assay, the particulars now being: Species BAW (Beet Armyworm), read-out: BAW (Biological Results, rating).
Take `Cc1ccc(C(=O)Nc2ccc(F)cc2)cc1NC(=O)[C@H]1[C@H](c2cc(Cl)cc(Cl)c2)C1(Cl)Cl` (relative stereo) [F134, trans-3-(2,2-Dichloro-3-(3,5-dichlorophenyl)cyclopropane-1-carboxamido)-N-(4-fluorophenyl)-4-methylbenzamide]: the pest or weed control at 50 µg/cm2 fell in the range of 50 to 100%.
Still for that read-out and setting: for `Cc1cc(N(C)C(=O)OC(C)(C)C)ccc1N(C)C(=O)c1cc(NC(=O)C2C(c3cc(Cl)c(Cl)c(Cl)c3)C2(Cl)Cl)ccc1Cl` [F221, trans-tert-Butyl-(4-(2-chloro-5-((1R,3R)-2,2-dichloro-3-(3,4,5-trichlorophenyl)cyclopropane-1-carboxamido)-N-methylbenzamido)-3-methylphenyl)(methyl)carbamate] the value was 50 to 100%; for `Cc1cc(N(C)C(=O)OC(C)(C)C)ccc1NC(=O)c1cc(NC(=O)[C@H]2[C@H](c3ccc(F)c(Cl)c3)C2(Cl)Cl)ccc1Cl` (relative stereo) [F219, trans-tert-Butyl-(4-(2-chloro-5-(2,2-dichloro-3-(3-chloro-4-fluorophenyl)cyclopropane-1-carboxamido)benzamido)-3-methylphenyl)(methyl)carbamate], 50 to 100%; for `CNc1ccc(NC(=O)c2cc(NC(=O)[C@H]3[C@H](c4cc(Cl)cc(Cl)c4)C3(Cl)Cl)c(Cl)cc2Cl)cc1` (relative stereo) [F256, trans-2,4-dichloro-5-(2,2-dichloro-3-(3,5-dichlorophenyl)cyclopropane-1-carboxamido)-N-(4-(methylamino)phenyl)benzamide], 0 to 50%.

In a further assay the test system is Cabbage Looper (Trichoplusia ni, TRIPNI). Briefly: Bioassay on Cabbage Looper (CL), 128-well diet tray assay. It is filed as in vivo. As to conditions: Species CL (Cabbage Looper). The procedure:
as §1
Bioassays on CL were conducted using a 128-well diet tray assay. one to five second instar CL larvae were placed in each well (3 mL) of the diet tray that had been previously filled with 1 mL of artificial diet to which 50 μg/cm^2 of the test molecule (dissolved in 50 μL of 90:10 acetone-water mixture) had been applied (to each of eight wells) and then allowed to dry. Trays were covered with a clear self-adhesive cover, vented to allow gas exchange, and held at 25° C., 14:10 light-dark for five to seven days. Percent mortality was recorded for the larvae in each well; activity in the eight wells was then averaged. The results are indicated in the table entitled “Table ABC: Biological Results” (See Table Section).
On to `CC1(c2cc(Cl)cc(Cl)c2)C(C(=O)Nc2ccc(Cl)c(C(=O)Nc3ccc(F)cc3)c2)C1(Cl)Cl` (stereo not drawn) [F253, 2-Chloro-5-cis-2,2-dichloro-3-(3,5-dichlorophenyl)-3-methylcyclopropane-1-carboxamido)-N-(4-fluorophenyl)benzamide], for which the “CL (Biological Results, rating)” value is on record as “A (50-100)”.

The assay is the same for the next values; noted with them: Trichoplusia ni; Cabbage Looper, 128-well diet tray assay; read-out: CL rating.
As to `CC(C)(C)OC(=O)N(C(=O)OC(C)(C)C)c1c(F)ccc(NC(=O)c2cc(NC(=O)[C@H]3[C@H](c4cc(Cl)cc(C#N)c4)C3(Cl)Cl)ccc2Cl)c1F` (relative stereo) [F515, trans-tert-Butyl-N-((tert-butoxy)carbonyl)-N-(3-(2-chloro-5-(2,2-dichloro-3-(3-chloro-5-cyanophenyl)cyclopropane-1-carboxamido)benzamido)-2,6-difluorophenyl)carbamate], the pest or weed control at 50 µg/cm2 is 50 to 100%.
On the same count and under the same terms, as for `CC(C)(C)OC(=O)N(C(=O)OC(C)(C)C)c1c(F)cc(F)cc1NC(=O)c1cc(NC(=O)[C@H]2[C@H](c3cc(Cl)cc(Cl)c3)C2(Cl)Cl)ccc1Cl` [F521, tert-Butyl-N-((tert-butoxy)carbonyl)-N-(2-(2-chloro-5-((1R,3R)-2,2-dichloro-3-(3,5-dichlorophenyl)cyclopropane-1-carboxamido)benzamido)-4,6-difluorophenyl)carbamate], the figure is 0 to 50%.

The same assay, now with this note: Trichoplusia ni; Species CL (Cabbage Looper); read-out: CL (Biological Results, rating).
As to `Cc1ccc(C(=O)Nc2ccc(F)cc2)cc1NC(=O)[C@H]1[C@H](c2cc(Cl)cc(Cl)c2)C1(Cl)Cl` (relative stereo) [F134, trans-3-(2,2-Dichloro-3-(3,5-dichlorophenyl)cyclopropane-1-carboxamido)-N-(4-fluorophenyl)-4-methylbenzamide], the pest or weed control at 50 µg/cm2 lay in the range of 50 to 100%.
`CSc1nc(NC(=O)c2cc(NC(=O)[C@H]3[C@H](c4cc(Cl)cc(Cl)c4)C3(Cl)Cl)ccc2Cl)n[nH]1` (relative stereo) [F184, trans-2-Chloro-5-(2,2-dichloro-3-(3,5-dichlorophenyl)cyclopropane-1-carboxamido)-N-(5-(methylthio)-1H-1,2,4-triazol-3-yl)benzamide]: the pest or weed control at 50 µg/cm2 was in the range of 50 to 100%.
